Data taken from patent US20260207602A1, “EGFR INHIBITORS” (Blueprint Medicines Corporation, priority 2022, published 2026).

What was measured:
EGFR L858R = target: T1, EGFR L858R (Homo sapiens, UniProt P00533, L858R); assay: Biochemical EGFR inhibition assay (Caliper mobility shift), EGFR L858R; conditions: biochemical Caliper mobility shift assay, EGFR L858R enzyme; read-out: Enz EGFR L858R IC50
T1 construct: purchased SignalChem E10-122BG
Outline: (§1)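 Apparent IC50 from Caliper separation of phospho-peptide from substrate. Conditions: 2.5 µM 5-FAM peptide, 1.0 mM ATP or ATP Km, pH 7.5 HEPES buffer, room temperature, 10–20% conversion, EDTA stop.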

EGFR (d746-750) = target: T2, EGFR (d746-750) (Homo sapiens, UniProt P00533, DEL746-750); assay: Biochemical EGFR inhibition assay (Caliper mobility shift), EGFR (d746-750); conditions: biochemical Caliper mobility shift assay, EGFR Exon 19-del enzyme; read-out: Enz EGFR Exon 19-del IC50
T2 construct: purchased SignalChem E10-122JG
T2 sequence (P00533 with tags, fused parts or gaps DEL746-750 limits assumed): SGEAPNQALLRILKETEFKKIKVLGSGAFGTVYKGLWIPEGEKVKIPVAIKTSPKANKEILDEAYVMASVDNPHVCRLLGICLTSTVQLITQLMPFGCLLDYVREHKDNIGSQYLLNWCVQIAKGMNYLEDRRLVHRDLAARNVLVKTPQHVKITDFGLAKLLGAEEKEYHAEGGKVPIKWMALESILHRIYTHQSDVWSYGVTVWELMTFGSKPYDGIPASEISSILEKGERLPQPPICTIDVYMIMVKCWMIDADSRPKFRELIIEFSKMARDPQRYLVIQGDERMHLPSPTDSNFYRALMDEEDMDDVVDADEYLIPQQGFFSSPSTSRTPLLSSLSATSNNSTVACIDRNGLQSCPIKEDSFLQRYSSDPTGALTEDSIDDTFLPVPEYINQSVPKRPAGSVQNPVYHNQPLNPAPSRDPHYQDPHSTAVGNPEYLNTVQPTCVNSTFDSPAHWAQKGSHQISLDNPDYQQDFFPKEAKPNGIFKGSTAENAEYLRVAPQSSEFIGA
Outline: as §1

[1] = target: intracellular phosphorylation of EGFR (Tyr1068) in PC-9 cells (Homo sapiens, UniProt P00533, DEL746-750); assay: PC-9 pEGFR AlphaLISA assay; format: cell-based; conditions: 4 hours incubation, read-out: Phos EGFR PC9 IC50
Chain of intracellular phosphorylation of EGFR (Tyr1068) in PC-9 cells (P00533 with tags, fused parts or gaps DEL746-750): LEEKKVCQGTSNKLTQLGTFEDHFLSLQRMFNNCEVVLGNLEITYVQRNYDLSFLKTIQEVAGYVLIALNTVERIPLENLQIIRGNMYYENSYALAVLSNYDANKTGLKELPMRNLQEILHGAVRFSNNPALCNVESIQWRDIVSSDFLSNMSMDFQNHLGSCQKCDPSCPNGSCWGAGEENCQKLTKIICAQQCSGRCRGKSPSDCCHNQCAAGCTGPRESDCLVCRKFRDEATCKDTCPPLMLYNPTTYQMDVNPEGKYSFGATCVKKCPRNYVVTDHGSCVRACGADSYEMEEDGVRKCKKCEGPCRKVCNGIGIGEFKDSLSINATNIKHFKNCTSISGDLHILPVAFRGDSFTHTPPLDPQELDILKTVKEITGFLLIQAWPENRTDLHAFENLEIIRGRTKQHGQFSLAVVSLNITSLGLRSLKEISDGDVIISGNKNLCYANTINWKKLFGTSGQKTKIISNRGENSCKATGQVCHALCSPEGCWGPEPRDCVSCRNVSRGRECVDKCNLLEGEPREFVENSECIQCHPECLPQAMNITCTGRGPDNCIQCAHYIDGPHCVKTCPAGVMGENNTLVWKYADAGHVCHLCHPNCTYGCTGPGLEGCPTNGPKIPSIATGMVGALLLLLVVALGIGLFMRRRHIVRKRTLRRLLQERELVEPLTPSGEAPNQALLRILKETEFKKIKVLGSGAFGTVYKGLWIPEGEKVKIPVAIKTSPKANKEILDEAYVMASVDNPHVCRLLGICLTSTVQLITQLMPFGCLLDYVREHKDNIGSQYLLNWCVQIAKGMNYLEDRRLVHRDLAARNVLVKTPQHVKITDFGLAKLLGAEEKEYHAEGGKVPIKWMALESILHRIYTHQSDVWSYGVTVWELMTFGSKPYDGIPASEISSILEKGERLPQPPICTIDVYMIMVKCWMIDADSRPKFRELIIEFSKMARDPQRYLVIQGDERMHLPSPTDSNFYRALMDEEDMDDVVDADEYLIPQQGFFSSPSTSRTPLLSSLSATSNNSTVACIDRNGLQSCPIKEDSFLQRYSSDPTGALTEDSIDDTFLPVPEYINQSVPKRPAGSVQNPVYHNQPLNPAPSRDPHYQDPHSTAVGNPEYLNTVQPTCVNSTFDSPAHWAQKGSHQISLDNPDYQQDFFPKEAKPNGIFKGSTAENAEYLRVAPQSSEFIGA
Outline: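 PC-9 cells (EGFR del746-750) in phenol-free DMEM/10% FBS, adhered overnight, then exposed to 10-point 4-fold compound dilutions for 4 h at 37 °C. Lysates assayed for pEGFR Tyr1068 by AlphaLISA SureFire Ultra; IC50 from percent pEGFR inhibition vs log concentration.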

T1 sequence (P00533 25-1210 L858R): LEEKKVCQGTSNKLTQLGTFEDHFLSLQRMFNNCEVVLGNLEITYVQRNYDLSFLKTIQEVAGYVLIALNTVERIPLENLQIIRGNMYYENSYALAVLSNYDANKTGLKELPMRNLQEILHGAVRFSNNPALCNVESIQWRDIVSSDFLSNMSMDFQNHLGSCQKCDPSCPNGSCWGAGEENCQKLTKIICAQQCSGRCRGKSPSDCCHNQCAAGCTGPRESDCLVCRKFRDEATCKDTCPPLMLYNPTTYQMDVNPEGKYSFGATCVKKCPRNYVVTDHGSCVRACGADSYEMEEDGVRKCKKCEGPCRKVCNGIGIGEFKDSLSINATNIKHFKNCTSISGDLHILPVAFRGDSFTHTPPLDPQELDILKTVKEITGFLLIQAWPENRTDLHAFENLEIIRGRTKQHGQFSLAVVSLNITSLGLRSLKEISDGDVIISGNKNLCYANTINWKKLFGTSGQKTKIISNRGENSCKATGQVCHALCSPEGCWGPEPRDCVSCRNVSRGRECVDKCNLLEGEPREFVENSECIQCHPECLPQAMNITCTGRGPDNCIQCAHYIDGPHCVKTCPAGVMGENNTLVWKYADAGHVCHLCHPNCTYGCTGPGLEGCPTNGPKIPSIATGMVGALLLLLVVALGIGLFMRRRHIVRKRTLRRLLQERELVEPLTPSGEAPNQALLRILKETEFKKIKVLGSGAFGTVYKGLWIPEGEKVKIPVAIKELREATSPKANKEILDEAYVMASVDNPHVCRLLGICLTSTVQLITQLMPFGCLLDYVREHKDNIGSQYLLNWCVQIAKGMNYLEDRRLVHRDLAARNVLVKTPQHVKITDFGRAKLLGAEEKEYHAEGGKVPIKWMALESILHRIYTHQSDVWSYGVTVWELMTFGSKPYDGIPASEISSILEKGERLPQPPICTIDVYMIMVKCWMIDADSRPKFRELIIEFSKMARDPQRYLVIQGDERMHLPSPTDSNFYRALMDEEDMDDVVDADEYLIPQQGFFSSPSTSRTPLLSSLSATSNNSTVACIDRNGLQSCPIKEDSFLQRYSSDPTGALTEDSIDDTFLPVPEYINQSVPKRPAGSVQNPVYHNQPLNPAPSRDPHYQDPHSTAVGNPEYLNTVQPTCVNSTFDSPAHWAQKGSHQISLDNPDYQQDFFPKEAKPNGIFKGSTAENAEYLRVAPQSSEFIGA

Compound	IC50 (EGFR L858R)	IC50 (EGFR (d746-750))	IC50 [1]
CN1CCN(CC#Cc2cc(OC3CCOCC3)c3c(Nc4ccc5ncsc5c4F)ncnc3c2)CC1 [Example A24, 7-fluoro-N-(7-(3-(4-methylpiperazin-1-yl)prop-1-yn-1-yl)-5-((tetrahydro-2H-pyran-4-yl)oxy)quinazolin-4-yl)benzo[d]thiazol-6-amine]	> 0.0501 µM	0.0101 to 0.05 µM	0.0101 to 0.05 µM
CN1CCC[C@H](Oc2cc(-c3cnn(C)c3)cc3ncnc(Nc4ccc5ncsc5c4F)c23)C1 [Example 69, (S)-7-fluoro-N-(7-(1-methyl-1H-pyrazol-4-yl)-5-((1-methylpiperidin-3-yl)oxy)quinazolin-4-yl)benzo[d]thiazol-6-amine]	≤ 0.01 µM	≤ 0.01 µM	≤ 0.01 µM
CN1CC[C@H](Oc2cc(-c3cnn(C)c3)cc3ncnc(Nc4ccc5ncsc5c4F)c23)C1=O (single isomer, unassigned) [Example 73]	≤ 0.01 µM	≤ 0.01 µM	0.0101 to 0.05 µM
COc1cc2c(Nc3ccc4ncsc4c3)ncnc2cc1-c1cnn(C)c1 [Example 263, N-(6-methoxy-7-(1-methyl-1H-pyrazol-4-yl)quinazolin-4-yl)benzo[d]thiazol-6-amine]	≤ 0.01 µM	≤ 0.01 µM	≤ 0.01 µM
COc1cc(O[C@H](C)C2COC2)c2c(Nc3ccc4ncsc4c3)ncnc2c1 [Example 124, (R)-N-(7-methoxy-5-(1-(oxetan-3-yl)ethoxy)quinazolin-4-yl)benzo[d]thiazol-6-amine]	≤ 0.01 µM	≤ 0.01 µM	0.0101 to 0.05 µM
Cn1cc(-c2cc(OC3COCC3(F)F)c3c(Nc4ccc5ncsc5c4)ncnc3c2)cn1 (stereo not drawn) [Example 14, N-(5-((4,4-difluorotetrahydrofuran-3-yl)oxy)-7-(1-methyl-1H-pyrazol-4-yl)quinazolin-4-yl)benzo[d]thiazol-6-amine]	≤ 0.01 µM	≤ 0.01 µM	0.0101 to 0.05 µM
COc1cc2ncnc(Nc3ccc4ncsc4c3)c2cc1NC(=O)CCN1CCCCC1 [Example 400, N-(4-(benzo[d]thiazol-6-ylamino)-7-methoxyquinazolin-6-yl)-3-(piperidin-1-yl)propanamide]	0.0101 to 0.05 µM	≤ 0.01 µM	0.0101 to 0.05 µM
CN1CC[C@H](Oc2cc(-c3cnn(C)c3)cc3ncnc(Nc4ccc5ncsc5c4)c23)C1 [Example 34, (S)-N-(7-(1-methyl-1H-pyrazol-4-yl)-5-((1-methylpyrrolidin-3-yl)oxy)quinazolin-4-yl)benzo[d]thiazol-6-amine]	0.0101 to 0.05 µM	≤ 0.01 µM	0.0101 to 0.05 µM
CC(C)Oc1cc(-c2cnn(C)c2)cc2ncnc(Nc3ccc4scnc4c3)c12 [Example 254, N-(5-isopropoxy-7-(1-methyl-1H-pyrazol-4-yl)quinazolin-4-yl)benzo[d]thiazol-5-amine]	≤ 0.01 µM	≤ 0.01 µM	0.0101 to 0.05 µM
C[C@@H](Oc1cc(-c2cnn(C)c2)cc2ncnc(Nc3ccc4ncsc4c3)c12)C(=O)N1CCOCC1 [Example 285, (R)-2-((4-(benzo[d]thiazol-6-ylamino)-7-(1-methyl-1H-pyrazol-4-yl)quinazolin-5-yl)oxy)-1-morpholinopropan-1-one]	≤ 0.01 µM	≤ 0.01 µM	≤ 0.01 µM
C[C@@H](Oc1cc(N2CCN(C)CC2)cc2ncnc(Nc3ccc4ncsc4c3)c12)C1COC1 (single isomer, unassigned) [Example 97]	0.0101 to 0.05 µM	≤ 0.01 µM	0.0101 to 0.05 µM
CN1CCC2(COC2)C(Oc2cc(-c3cnn(C)c3)cc3ncnc(Nc4ccc5ncsc5c4)c23)C1 (stereo not drawn) [Example 352, N-(7-(1-methyl-1H-pyrazol-4-yl)-5-((7-methyl-2-oxa-7-azaspiro[3.5]nonan-5-yl)oxy)quinazolin-4-yl)benzo[d]thiazol-6-amine]	≤ 0.01 µM	≤ 0.01 µM	≤ 0.01 µM
CO[C@@H]1CNCC[C@H]1Oc1cc(-c2cnn(C)c2)cc2ncnc(Nc3ccc4ncsc4c3)c12 (single isomer, unassigned) [Example A41]	≤ 0.01 µM	≤ 0.01 µM	0.0101 to 0.05 µM
COc1nn(C)cc1-c1cc(O[C@H]2CCN(C)C2=O)c2c(Nc3ccc4ncsc4c3)ncnc2c1 (single isomer, unassigned) [Example 75]	≤ 0.01 µM	≤ 0.01 µM	≤ 0.01 µM
CC(Oc1cc(-c2cnn(C)c2)cc2ncnc(Nc3ccc4ncsc4c3F)c12)C(=O)N(C)C (stereo not drawn) [Example 278, 2-((4-((7-fluorobenzo[d]thiazol-6-yl)amino)-7-(1-methyl-1H-pyrazol-4-yl)quinazolin-5-yl)oxy)-N,N-dimethylpropanamide]	≤ 0.01 µM	≤ 0.01 µM	≤ 0.01 µM
C[C@@H](Oc1cc(-c2cnn(C)c2)cc2ncnc(Nc3ccc4ncsc4c3)c12)C1CN(C)C1 (single isomer, unassigned) [Example 384]	0.0101 to 0.05 µM	0.0101 to 0.05 µM	0.0101 to 0.05 µM
CN1CC[C@H](Oc2cc(-c3cn(C)nc3OC(F)F)cc3ncnc(Nc4ccc5ncsc5c4)c23)[C@@H](F)C1 (single isomer, unassigned) [Example 368]	≤ 0.01 µM	≤ 0.01 µM	0.0101 to 0.05 µM
C[C@@H](Oc1cc(-c2cnn(C)c2)cc2ncnc(Nc3ccc4ncsc4c3)c12)[C@H](C)N(C)C (single isomer, unassigned) [Example 145]	≤ 0.01 µM	≤ 0.01 µM	≤ 0.01 µM
COc1nn(C)cc1-c1cc(O[C@@H]2CCN(C)C[C@@H]2F)c2c(Nc3ccc4ncsc4c3)ncnc2c1 [Example 362, N-(5-(((3S,4R)-3-fluoro-1-methylpiperidin-4-yl)oxy)-7-(3-methoxy-1-methyl-1H-pyrazol-4-yl)quinazolin-4-yl)benzo[d]thiazol-6-amine]	≤ 0.01 µM	≤ 0.01 µM	≤ 0.01 µM
COc1nn(C)cc1-c1cc(O[C@@H]2CCNC[C@H]2F)c2c(Nc3ccc4ncsc4c3F)ncnc2c1 [Example 350, 7-fluoro-N-(5-(((3R,4R)-3-fluoropiperidin-4-yl)oxy)-7-(3-methoxy-1-methyl-1H-pyrazol-4-yl)quinazolin-4-yl)benzo[d]thiazol-6-amine]	≤ 0.01 µM	≤ 0.01 µM	≤ 0.01 µM
CN1CC[C@H](Oc2cc(-c3cnn(C)c3)cc3ncnc(Nc4ccc5ncsc5c4)c23)C1=O (single isomer, unassigned) [Example 24]	≤ 0.01 µM	≤ 0.01 µM	0.0101 to 0.05 µM
COc1cc2ncnc(Nc3ccc4ncsc4c3)c2cc1-c1cnn(C)c1 [Example 132, N-(7-methoxy-6-(1-methyl-1H-pyrazol-4-yl)quinazolin-4-yl)benzo[d]thiazol-6-amine]	≤ 0.01 µM	≤ 0.01 µM	≤ 0.01 µM
C[C@H](Oc1cc(-c2cnn(C)c2)cc2ncnc(Nc3ccc4ncsc4c3F)c12)C(=O)N1CCOCC1 (single isomer, unassigned) [Example 282]	≤ 0.01 µM	≤ 0.01 µM	≤ 0.01 µM
CO[C@@H]1CN(C)CC[C@H]1Oc1cc(-c2cnn(C)c2)cc2ncnc(Nc3ccc4ncsc4c3)c12 (single isomer, unassigned) [Example A43]	≤ 0.01 µM	≤ 0.01 µM	0.0101 to 0.05 µM
